Where two headings read alike, the source gives them in different places.
Experiments:
abdominal aorta [1] = settings: for Maximum Response, relaxation / Maximum Response, contraction / EC50: abdominal aorta; for Maximum Response, relaxation: after sub-maximal contraction with PGF2a; for EC50: read-out: EC50, contractile response
Description: (§1) Aortic Vascular Reactivity: Abdominal aortic rings were assessed for vascular reactivity as previously described (30). Briefly, mice were euthanized by overdose of pentobarbital (50 mg, i.p.), and the abdominal aorta was quickly removed and placed in Kreb's buffer containing (in mmol/L): 118.3 NaCl, 4.7 KCl, 1.2 MgSO4, 1.2 KH2PO4, 25 NaHCO3, 2.5 CaCl2 and 11 glucose. Vascular rings (4-5 mm in length) were suspended in oxygenated Kreb's buffer (95% O2/5% CO2) in organ baths at 37° C. and connected to a force transducer via steel hooks. Resting tension was adjusted to 0.5 grams over 45 minutes.
(§2) Statistics: Data were analyzed by ANOVA with repeated measures as appropriate. Post-hoc analyses were performed using Bonferroni multiple-comparisons procedures. EC50 and maximum response calculations were performed by fitting individual dose-response data sets to a four-parameter logistic function (Hillslope method); y=min+(max−min)/(1+(x/EC50)̂Hill slope). […] All analytical comparisons were performed using SigmaStat/SigmaPlot (Systat). All data are presented as mean±sem.

abdominal aorta [2] = assay: tissue or blood; settings: Mus musculus
Description: as §1, §2

[3] = tested on: 2°-branch mesenteric artery; assay: tissue or blood; design: species or system mice; settings: for Maximum Response, contraction / EC50: mesenteric artery; for EC50: read-out: EC50, contractile response
Description: Mesenteric Artery Vascular Reactivity: Secondary branches of mesenteric artery were dissected and placed in chilled oxygenated (21% O2, 5% CO2, and 74% N2) Kreb's buffer. A segment (˜1 mm long) of artery was transferred to a vessel chamber (DMT), cannulated with glass micropipettes and secured with silk ligatures. The artery was slowly pressurized to 40 mmHg without flow. After 30 min equilibration, vessel viability was tested by constriction response to 100 mM KCl. Vascular responses to PE (10-9-10-5 mol/L), AVP (10-12-10-7 mol/L), and ET-1 (10-11-10-8 mol/L) were then assessed. The artery was then superfused with calcium-free Krebs buffer containing 10-5 mol/L sodium nitroprusside and 2 mmol/L EGTA to maximally dilate the vessel. Internal and external diameters were measured at 75 mm Hg. Wall thickness, media/lumen ratio and cross sectional area (CSA) were calculated as previously described by Neves, et al. (58).
Statistics: Data were analyzed by ANOVA with repeated measures as appropriate. Post-hoc analyses were performed using Bonferroni multiple-comparisons procedures. EC50 and maximum response calculations were performed by fitting individual dose-response data sets to a four-parameter logistic function (Hillslope method); y=min+(max−min)/(1+(x/EC50)̂Hill slope). All mRNA fold changes were calculated using the Livak method (51). All analytical comparisons were performed using SigmaStat/SigmaPlot (Systat). All data are presented as mean±sem.

C57B1/6J mice = assay: Vasopressin infusion during pregnancy, preeclampsia-like phenotypes; format: in vivo
Description: Animal Studies: Female C57B1/6J mice were obtained from Jackson Laboratories between 8-12 weeks of age. Osmotic minipumps infusing vasopressin (240 ng/hr) or saline vehicle were inserted into the subcutaneous space via incision between the scapulae. Following three days of recovery, females were mated with male C57B1/6J mice. Presence of a vaginal plug indicated gestational day 0.5. Blood pressure was tracked before mating and throughout gestation by tail-cuff plethysmography. On gestational day 18, females were sacrificed for necropsy. Pup weight was recorded. Dam kidney sections were generated and imaged by electron microscopy by the University of Iowa Department of Pathology. All studies were approved by the University of Iowa Animal Care and Use Committee (ACURF#1211239).

[4] = in blood; cited from earlier work
sRA mice [5] = assay: Blood pressure by tail-cuff during chronic subcutaneous infusion; format: in vivo; settings: 22 ng/h sc by osmotic minipump, 10 days
Description: Here we first examined blood pressure in sRA mice using a Visitech Systems BP-2000 tail-cuff blood pressure monitoring system, as previously described (79). Briefly, animals were acclimated to warmed restraint boxes daily for 1 wk. Once acclimated, 30 measurements of systolic blood pressure were averaged from each animal daily for 2 wk to assess baseline blood pressure. Conivaptan (Vaprisol, YM 087, 22 ng/h sc, Baxter Healthcare) or tolvaptan (OPC-41061, 22 ng/h sc, Sigma Aldrich) was delivered to distinct subsets of mice by osmotic minipump (model 1004, Alzet). After osmotic minipump implantation, pressures were recorded daily for 10 days to assess drug effects.

sRA mice [6] = assay: Radiotelemetric blood pressure, heart rate and physical activity during chronic subcutaneous infusion; format: in vivo; settings: for radiotelemetric blood pressure: sRA mice, 22 ng/h sc infusion (conivaptan 18 days, one female; tolvaptan 10 days, n=4 female)
Description: Blood pressure (telemetry). Radiotelemetric blood pressures were recorded from the carotid artery essentially as previously reported (27). Briefly, a telemeter probe (DSI, model TA11PA-C10) was inserted into the common carotid artery under ketamine-xylazine anesthesia. After >2 days of recovery, blood pressure, heart rate, and spontaneous physical activity were recorded for 30 s every 5 min using the Dataquest program (DSI). After baseline recordings, mice were chronically delivered conivaptan and tolvaptan via osmotic minipump that was implanted through an interscapular incision into the subcutaneous space of the back under isoflurane anesthesia.

[7] = tested on: sRA and control littermate mice; assay: Blood chemistry following tolvaptan infusion (iSTAT CHEM8+); format: in vivo; settings: for Anion gap / BUN / Chloride / Glucose / Hematocrit / Ionized calcium / Potassium / Sodium / Total CO2 / Creatinine: tolvaptan 22 ng/h, 10 days sc; for Creatinine: lower detection limit 0.20 mg/dl
Description: Blood and urine analyses: Plasma was obtained by collecting whole blood by submandibular bleed into lithium heparin coated tubes, then centrifuged at 5,000×g for 5 minutes, and the supernatant transferred to a fresh tube and frozen at −80° C. until analysis. Urine was collected using Nalgene single-mouse metabolism cages as previously described (20). Copeptin was measured using an ELISA kit (USCN Life Sciences), according to the manufacturer's instructions. Blood chemistries and urine creatinine were determined using a handheld iSTAT clinical chemistry analyzer (Abbott), with CHEM8+ cartridges. Urine protein was determined using a bicinchoninic acid assay kit (Thermo Fisher/Pierce), according to the manufacturer's instructions.

[8] = female sRA mouse, 22 ng/h sc, 18 days

CC(=O)OCC[N+](C)(C)C [Acetylcholine, acetylcholine]
Maximum Response, relaxation (abdominal aorta [1]; male control mice): 78.9 ± 3.3%
Maximum Response, relaxation (abdominal aorta [1]; male sRA mice): 70.4 ± 8.9%
EC50 (abdominal aorta [2]; read-out: EC50, relaxation response, abdominal aorta, male control mice, after sub-maximal contraction with PGF2a): 130 ± 35 nM
EC50 (abdominal aorta [2]; read-out: EC50, relaxation response, abdominal aorta, male sRA mice, after sub-maximal contraction with PGF2a): 879 ± 298 nM

CC[C@H](C)[C@H](NC(=O)[C@H](Cc1ccc(O)cc1)NC(=O)[C@@H](NC(=O)[C@H](CCCNC(=N)N)NC(=O)[C@@H](N)CC(=O)O)C(C)C)C(=O)N[C@@H](Cc1c[nH]cn1)C(=O)N1CCC[C@H]1C(=O)N[C@@H](Cc1ccccc1)C(=O)O [Angiotensin II, angiotensin II]
Maximum Response, contraction (abdominal aorta [1]; male control littermate mice): 0.32 ± 0.03 g
Maximum Response, contraction (abdominal aorta [1]; male sRA mice): 0.38 ± 0.03 g

NC(=O)CC[C@@H]1NC(=O)[C@H](Cc2ccccc2)NC(=O)[C@H](Cc2ccc(O)cc2)NC(=O)[C@@H](N)CSSC[C@@H](C(=O)N2CCC[C@H]2C(=O)N[C@@H](CCCN=C(N)N)C(=O)NCC(N)=O)NC(=O)[C@H](CC(N)=O)NC1=O [Arginine vasopressin, arginine vasopressin]
Maximum Response, contraction ([3]; male control littermate mice): 52.5 ± 3.2%
EC50 ([3]; male control littermate mice): 0.57 ± 0.15 nM
EC50 ([3]; male sRA mice): 15.9 ± 13.5 nM
renal pathology (electron microscopy) (C57B1/6J mice; dam kidney, gestational day 18, 240 ng/hr sc minipump): pathognomic glomerular endotheliosis
rate of pregnancy (fecundity) (C57B1/6J mice; female C57B1/6J mice, 240 ng/hr sc minipump): significantly reduced the rate of pregnancy
fetal growth (C57B1/6J mice; gestational day 18 fetuses, 240 ng/hr sc minipump): substantial fetal growth restriction
proteinuria (C57B1/6J mice; pregnant C57B1/6J mice, 240 ng/hr sc minipump): apparent proteinuria
blood pressure during pregnancy (C57B1/6J mice; pregnant C57B1/6J mice, 240 ng/hr sc minipump, tail-cuff): robust increase in blood pressure
Maximum Response, contraction (abdominal aorta [1]; male control littermate mice): 0.29 ± 0.03 g
Maximum Response, contraction (abdominal aorta [1]; male sRA mice): 0.12 ± 0.01 g
EC50 (abdominal aorta [1]; male control littermate mice): 2.19 ± 0.19 nM
EC50 (abdominal aorta [1]; male sRA mice): 3.72 ± 0.73 nM
biological half-life [4]: 5-20 minutes

CC[C@H](C)[C@H](NC(=O)[C@H](CC(=O)O)NC(=O)[C@H](CC(C)C)NC(=O)[C@H](Cc1c[nH]cn1)NC(=O)[C@@H]1CSSC[C@H](N)C(=O)N[C@@H](CO)C(=O)N[C@H]2CSSC[C@H](NC(=O)[C@H](CCC(=O)O)NC(=O)[C@H](CCCCN)NC(=O)[C@H](CC(=O)O)NC(=O)[C@H](CCSC)NC(=O)[C@H](CC(C)C)NC(=O)[C@H](CO)NC(=O)[C@H](CO)NC2=O)C(=O)N[C@@H](C(C)C)C(=O)N[C@@H](Cc2ccc(O)cc2)C(=O)N[C@@H](Cc2ccccc2)C(=O)N1)C(=O)N[C@H](C(=O)N[C@@H](Cc1c[nH]c2ccccc12)C(=O)O)[C@@H](C)CC [Endothelin-1, endothelin-1]
Maximum Response, contraction ([3]; male control littermate mice): 67.8 ± 4.3%
EC50 ([3]; male control littermate mice): 1.68 ± 0.43 nM
Maximum Response, contraction ([3]; male sRA mice): 58 ± 4.6%
EC50 ([3]; male sRA mice): 0.45 ± 0.17 nM
Maximum Response, contraction (abdominal aorta [1]; male control littermate mice): 0.45 ± 0.04 g
Maximum Response, contraction (abdominal aorta [1]; male sRA mice): 0.55 ± 0.09 g
EC50 (abdominal aorta [1]; male control littermate mice): 3.4 ± 0.33 nM
EC50 (abdominal aorta [1]; male sRA mice): 5.19 ± 0.93 nM

CNC[C@H](O)c1cccc(O)c1 [Phenylephrine, phenylephrine]
EC50 ([3]; Mus musculus, male control littermate mice): 1460 nM
EC50 ([3]; Mus musculus, male sRA mice): 560 ± 80 nM
Maximum Response, contraction ([3]; male control littermate mice): 67.3 ± 3%
Maximum Response, contraction ([3]; male sRA mice): 64.5 ± 4.1%
Maximum Response, contraction (abdominal aorta [1]; male control littermate mice): 1.18 ± 0.05 g
Maximum Response, contraction (abdominal aorta [1]; male sRA mice): 1.02 ± 0.10 g
EC50 (abdominal aorta [2]; read-out: EC50, contractile response, abdominal aorta, male control littermate mice): 1900 nM
EC50 (abdominal aorta [2]; read-out: EC50, contractile response, abdominal aorta, male sRA mice): 2430 nM

CCCCC[C@H](O)/C=C/[C@@H]1[C@@H](C/C=C\CCCC(=O)O)[C@@H](O)C[C@H]1O [Prostaglandin F2α, prostaglandin F2a]
Maximum Response, contraction (abdominal aorta [1]; male control littermate mice): 1.59 ± 0.06 g
Maximum Response, contraction (abdominal aorta [1]; male sRA mice): 1.50 ± 0.10 g
EC50 (abdominal aorta [1]; male control littermate mice): 4600 nM
EC50 (abdominal aorta [1]; male sRA mice): 3600 nM

Cc1ccccc1C(=O)Nc1ccc(C(=O)N2CCC[C@@H](O)c3cc(Cl)ccc32)c(C)c1 [Tolvaptan, tolvaptan]
systolic blood pressure (tail-cuff), effect on hypertension (sRA mice [5]): nearly identical normalization of blood pressure
radiotelemetric blood pressure (sRA mice [6]): blood pressure reduction was confirmed
Anion gap ([7]; female control mice): 17.0 ± 1.5 mM
BUN ([7]; female control mice): 18.4 ± 0.9 mg/dL
Chloride ([7]; female control mice): 112.4 ± 0.5 mM
Glucose ([7]; female control mice): 190 ± 13 mg/dL
Hematocrit ([7]; female control mice): 45.4 ± 0.7 % RBC
Ionized calcium ([7]; female control mice): 1.19 ± 0.05 mM
Potassium ([7]; female control mice): 6.4 ± 0.1 mM
Sodium ([7]; female control mice): 146.2 ± 0.7 mM
Total CO2 ([7]; female control mice): 24.0 ± 1.1 mM
Creatinine ([7]; female control mice): 0.24 ± 0.02 mg/dL
Anion gap ([7]; female sRA mice): 18.5 ± 0.7 mM
BUN ([7]; female sRA mice): 24.5 ± 1.7 mg/dL
Chloride ([7]; female sRA mice): 105.2 ± 1.6 mM
Glucose ([7]; female sRA mice): 136 ± 15 mg/dL
Hematocrit ([7]; female sRA mice): 49.8 ± 1.1 % RBC
Ionized calcium ([7]; female sRA mice): 1.18 ± 0.03 mM
Potassium ([7]; female sRA mice): 5.3 ± 0.3 mM
Sodium ([7]; female sRA mice): 146.3 ± 0.7 mM
Total CO2 ([7]; female sRA mice): 28.8 ± 1.7 mM
Creatinine ([7]; female sRA mice): 0.33 ± 0.04 mg/dL
Anion gap ([7]; male control mice): 16.3 ± 0.5 mM
BUN ([7]; male control mice): 21.5 ± 0.9 mg/dL
Chloride ([7]; male control mice): 115.5 ± 0.3 mM
Glucose ([7]; male control mice): 182 ± 7 mg/dL
Hematocrit ([7]; male control mice): 43.8 ± 1.1 % RBC
Ionized calcium ([7]; male control mice): 1.18 ± 0.04 mM
Potassium ([7]; male control mice): 6.6 ± 0.5 mM
Sodium ([7]; male control mice): 148.3 ± 1.3 mM
Total CO2 ([7]; male control mice): 24.0 ± 0.8 mM
Creatinine ([7]; male control mice): 0.25 ± 0.03 mg/dL
Anion gap ([7]; male sRA mice): 21.0 ± 2.4 mM
BUN ([7]; male sRA mice): 27.3 ± 2.1 mg/dL
Chloride ([7]; male sRA mice): 107.0 ± 2.7 mM
Glucose ([7]; male sRA mice): 181 ± 28 mg/dL
Hematocrit ([7]; male sRA mice): 52.0 ± 1.1 % RBC
Ionized calcium ([7]; male sRA mice): 1.18 ± 0.03 mM
Potassium ([7]; male sRA mice): 5.4 ± 0.1 mM
Sodium ([7]; male sRA mice): 147.5 ± 1.9 mM
Total CO2 ([7]; male sRA mice): 26.0 ± 3.4 mM
Creatinine ([7]; male sRA mice): 0.30 ± 0.04 mg/dL
effect on hyponatremia and hypocalcemia ([7]; sRA mice, chronic tolvaptan 22 ng/h sc, 10 days): corrected both of these imbalances

Cc1nc2c([nH]1)-c1ccccc1N(C(=O)c1ccc(NC(=O)c3ccccc3-c3ccccc3)cc1)CC2 [conivaptan]
systolic blood pressure (tail-cuff), effect on hypertension (sRA mice [5]): complete normalization of the hypertension
heart rate (telemetry) (sRA mice [6]; [8]): slight reduction in heart rate
spontaneous physical activity (sRA mice [6]; [8]): remained normal
radiotelemetric blood pressure (sRA mice [6]): gradual but substantial reduction in blood pressure

[Cl-].[K+] [potassium chloride]
contractile response to potassium chloride ([3]; mesenteric artery branches of sRA mice vs control, 100 mM KCl): significant reduction in contractile response
constrictor response to potassium chloride (abdominal aorta [1]; aortic rings from sRA mice vs control, 100 mmol/l KCl): normal constrictor responses

Reference: US20150377876A1, “DIAGNOSTIC TOOLS TO PREDICT ONSET OF PREECLAMPSIA” (UNIVERSITY OF IOWA RESEARCH FOUNDATION, priority 2013, published 2015)
